From patent US6589325B1, “Phthalocyanine compounds, water-base ink compositions and colored products” (Nippon Kayaku Kabushiki Kaisha, priority 1999, dated 2003)

Legend:
[1] = light fastness of recorded image, carbon arc fade meter; assay type: physicochemical; settings: for light fastness (summary in words): depending on the kind of recording material; for Light fastness Judgment / Light fastness (ΔE): carbon arc 20 hours; for Light fastness Judgment: blue scale JIS L-0841; for Light fastness (ΔE): color difference before/after
Procedure: (§1) The solution of the composition as described below was prepared and filtered through a 0.45 μm membrane filter to prepare the water-based ink compositions for ink-jetting. Ion-exchanged water was used. The water-based ink compositions were prepared with water and ammonium hydroxide to have a pH of 8-10 and a total amount of 100 parts.
(§2) By using an ink-jet printer (Trade name: PICTY80L, made by NEC KK), ink-jet recordings were done on three kinds of recording paper: a plain paper (Printer Paper A4, TLB5A4S, made by Canon KK), a special paper A (Color BJ Paper LC101, made by Canon KK), a special paper B (Color Image Jet Coat Paper STX73A4, made by Sharp KK). The test results on hue, light fastness, water fastness and color rendering property in recorded images by the water-based ink compositions (containing the compounds of Example 1 to 2) of the present invention are shown in Table 2.
(§3) The ink compositions for two comparative examples were prepared so as to coincide in optical density with the black ink of the present invention as in the above (A), but the respective ink compositions contained C.I. Direct Black 19 (represented by following Formula), an azo colorant generally applied for an ink-jet black colorant (Comparative example 1) and the compound (represented by following Formula) described in JP Laid-Open No. 140270/1990 (Comparative example 2) respectively in place of the colorant. The test results on hue, light fastness, water fastness and color rendering property in recorded images pictured by the ink compositions for the comparative examples also are shown in Table 2. [drawing 4]
A carbon arc fade meter (by Suga Testing Machine KK) was used to irradiate carbon arc on the recorded image for 20 hours. Grade was determined based on blue scale grade as prescribed in JIS L-0841. Color difference (ΔE) between before and after the irradiation also was determined by the above colorimetry system.

[2] = water fastness of recorded image, stirred in water; assay type: physicochemical; settings: for water fastness (summary in words): plain paper and special paper; for Water fastness Judgment / Water fastness (ΔE): stirred in water 2 min; for Water fastness Judgment: JIS fading gray scale; for Water fastness (ΔE): color difference before/after
Procedure: as §1, §2, §3
The recorded material was set in a beaker filled with water, stirred for 2 min and air-dried. The change in the recorded image was determined based on the JIS fading gray scale. Color difference (ΔE) between before and after the treatment also was determined by the above colorimetry system.

| SMILES | light fastness (summary in words) [1] | Light fastness Judgment ([1]; plain paper) | Light fastness (ΔE) ([1]; plain paper) | Light fastness Judgment ([1]; special paper A) | Light fastness (ΔE) ([1]; special paper A) | Light fastness Judgment ([1]; special paper B) | Light fastness (ΔE) ([1]; special paper B) | water fastness (summary in words) [2] | Water fastness Judgment ([2]; plain paper) | Water fastness (ΔE) ([2]; plain paper) | Water fastness Judgment ([2]; special paper A) | Water fastness (ΔE) ([2]; special paper A) | Water fastness Judgment ([2]; special paper B) | Water fastness (ΔE) ([2]; special paper B) |
| --- | --- | --- | --- | --- | --- | --- | --- | --- | --- | --- | --- | --- | --- | --- |
| Nc1ccc(N=Nc2ccc(N=Nc3c(S(=O)(=O)[O-])cc4cc(S(=O)(=O)[O-])c(N=Nc5ccc(N=Nc6ccc(N)cc6N)cc5)c(O)c4c3N)cc2)c(N)c1.[Na+].[Na+] [Comparative Example 1, C.I. Direct Black 19] | unstable quality | Grade 4 | (2.0) | Grade 3-4 | (4.1) | Grade 4 | (1.5) | inferior | Grade 2 | (11.5) | Grade 4 | (2.9) | Grade 4 | (2.8) |
| Nc1ccc2cc(S(=O)(=O)O)c(N=Nc3ccc(N=Nc4cc(C(=O)O)cc(C(=O)O)c4)c4ccccc34)c(O)c2c1 [Comparative Example 2] | unstable quality | Grade 4 | (1.3) | Grade 3 | (8.0) | Grade 4 | (2.8) | inferior | Grade 3 | (6.2) | Grade 5 | (1.0) | Grade 2 | (10.3) |
